Test results as given in US20100267561A1, “HERBICIDAL PYRIDAZINONE DERIVATIVES” (priority 2007, published 2010).

Legend:
Assay type in all cases: in vivo
[1] = system: barnyardgrass (Echinochloa crus-galli); assay: Test A pre-/postemergence plant response
Summary of the method: (§1)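 Seeds in loam soil/sand blend treated preemergence by directed soil spray, with simultaneous postemergence spray on 2–10 cm plants at one- to two-leaf stage; compounds in non-phytotoxic solvent with surfactant. Injury visually rated versus untreated controls after about 10 days in greenhouse, 0 (no effect) to 100 (complete control).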

corn (Zea mays) = assay: Test A pre-/postemergence plant response
Summary of the method: as §1

[2] = system: giant foxtail (Setaria faberi); assay: Test A pre-/postemergence plant response
Summary of the method: as §1

[3] = system: large crabgrass (Digitaria sanguinalis); assay: Test A pre-/postemergence plant response
Summary of the method: as §1

[4] = system: pigweed (Amaranthus retroflexus); assay: Test A pre-/postemergence plant response
Summary of the method: as §1

[5] = system: wheat (Triticum aestivum); assay: Test A pre-/postemergence plant response
Summary of the method: as §1

[6] = system: green foxtail (Setaria viridis); assay: Test B pre-/postemergence plant response; conditions: for Plant response rating, Foxtail, Green: Postemergence
Summary of the method: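 Preemergence and postemergence (plants 2-18 cm, 1- to 4-leaf stage) applications used test chemicals in a non-phytotoxic solvent with surfactant. Plants were held in a greenhouse 13 to 15 days, then rated visually against controls on a 0-100 scale (0 no effect, 100 complete control).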

[7] = system: barnyardgrass (Echinochloa crus-galli); assay: Test B flooded paddy test plant response
Summary of the method: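 Paddy-water application to 2-leaf plants in pots held under 3 cm of flooding; response is a 0–100 visual control rating against controls after 13 to 15 days, and a dash marks a missing result.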

[8] = Postemergence, 31 g ai/ha, 0 to 100 scale (0 no effect, 100 complete control)
[9] = Postemergence, 125 g ai/ha, 0 to 100 scale, 0 no effect, 100 complete control
[10] = Preemergence, 31 g ai/ha, 0 to 100 scale, 0 is no effect, 100 is complete control
[11] = Preemergence, 125 g ai/ha, 0 to 100 scale (0 no effect, 100 complete control)

COCc1cc(-c2ccc(Br)cc2)nn1-c1c(O)cnn(C)c1=O [Compound 68]
Plant response rating, Barnyardgrass [1, 8]: 10
Plant response rating, Barnyardgrass [1, 9]: 100
Plant response rating, Barnyardgrass [1, 10]: 0
Plant response rating, Barnyardgrass [1, 11]: 90
Plant response rating, Corn (corn (Zea mays); [8]): 0
Plant response rating, Corn (corn (Zea mays); [9]): 50
Plant response rating, Corn (corn (Zea mays); [10]): 0
Plant response rating, Corn (corn (Zea mays); [11]): 0
Plant response rating, Foxtail, Giant [2, 8]: 50
Plant response rating, Foxtail, Giant [2, 9]: 90
Plant response rating, Foxtail, Giant [2, 10]: 10
Plant response rating, Foxtail, Giant [2, 11]: 100
Plant response rating, Crabgrass, Large [3, 8]: 10
Plant response rating, Crabgrass, Large [3, 9]: 10
Plant response rating, Crabgrass, Large [3, 10]: 0
Plant response rating, Crabgrass, Large [3, 11]: 10
Plant response rating, Pigweed [4, 8]: 0
Plant response rating, Pigweed [4, 9]: 0
Plant response rating, Pigweed [4, 10]: 0
Plant response rating, Pigweed [4, 11]: 0
Plant response rating, Wheat [5, 8]: 0
Plant response rating, Wheat [5, 9]: 0
Plant response rating, Wheat [5, 10]: 0
Foxtail, Green plant response rating ([6]; 8 g ai/ha, postemergence, 0-100 scale): 10
Plant response rating, Foxtail, Green ([6]; 16 g ai/ha, scale 0 to 100): 50
Plant response rating, Foxtail, Green ([6]; 31 g ai/ha, scale 0 to 100): 60
Plant response rating, Foxtail, Green ([6]; 62 g ai/ha, scale 0 to 100, 0 no effect, 100 complete control): 95
Plant response rating, Barnyardgrass ([7]; Flood (flooded paddy test), 62 g ai/ha, scale 0 to 100, 0 no effect, 100 complete control): 0
Plant response rating, Barnyardgrass ([7]; Flood (flooded paddy test), 125 g ai/ha, scale 0 to 100, 0 no effect, 100 complete control): 0
Plant response rating, Barnyardgrass ([7]; Flood (flooded paddy test), 250 g ai/ha, scale 0 to 100, 0 no effect, 100 complete control): 0
Plant response rating, Barnyardgrass ([7]; Flood, 31 g ai/ha, scale 0 to 100): 0
